Measurements published in article PMC8286840, “Identifying SARS-CoV-2 antiviral compounds by screening for small molecule inhibitors of Nsp3 papain-like protease” (Biochemical Journal, 2021).
Structures can show the parent of a compound that is named as a salt. Where two headings read alike, the source gives them in different places.

Experiments:
[1] = molecular target: T1, SARS-CoV-2 PLpro (nsp3 1564–1878) (Severe acute respiratory syndrome coronavirus 2, UniProt P0DTD1); test: biochemical; set-up: FRET-quenched peptide (Pro3) cleavage by PLpro, 10 min pre-incubation, slope over 20 min, normalised to no-compound control; details: read-out: % of control remaining
[2] = molecular target: T1, SARS-CoV-2 PLpro (nsp3 1564–1878); test: biochemical; set-up: FRET-quenched peptide (Pro3) cleavage by PLpro, 10 min pre-incubation, slope over 20 min, normalised to no-compound control; details: read-out: % of control remaining; remark: listed apart in the source

## O=C(O)CCNC(=O)c1ccc(/N=N/c2ccc(O)c(C(=O)O)c2)cc1 [Balsalazide]
[1]; Well no.=7362, low concentration screen
  remaining activity at 1.25 µM: 96.6%
[2]; Well no.=7362, high concentration screen
  remaining activity at 3.75 µM: 92.1%

## CN(C)C(=O)Oc1cc(OC(=O)N(C)C)cc(C(O)CNC(C)(C)C)c1 (stereo not shown) [Bambuterol (hydrochloride)]
[1]; Well no.=6617, low concentration screen
  remaining activity at 1.25 µM: 100%
[2]; Well no.=6617, high concentration screen
  remaining activity at 3.75 µM: 101%

## CN(C)C(=O)Oc1cc(OC(=O)N(C)C)cc(C(O)CNC(C)(C)C)c1 (stereo not shown) [Bambuterol]
[1]; Well no.=1770, low concentration screen
  remaining activity at 1.25 µM: 92.4%
[2]; Well no.=1770, high concentration screen
  remaining activity at 3.75 µM: 92.8%

## COc1ccc(-c2oc3c(CC=C(C)C)c(O)cc(O)c3c(=O)c2O[C@@H]2O[C@@H](C)[C@H](O)[C@@H](O)[C@H]2O)cc1 [Baohuoside I]
[1]; Well no.=6684, low concentration screen
  remaining activity at 1.25 µM: 108%
[1]; Well no.=7047, low concentration screen
  remaining activity at 1.25 µM: 101%
[2]; Well no.=6684, high concentration screen
  remaining activity at 3.75 µM: 102%
[2]; Well no.=7047, high concentration screen
  remaining activity at 3.75 µM: 96.4%
[2]; Well no.=8129, high concentration screen
  remaining activity at 3.75 µM: 99.8%

## COc1cc(NC(=O)CCN2CCC(OC(=O)Nc3ccccc3-c3ccccc3)CC2)c(Cl)cc1CNC[C@H](O)c1ccc(O)c2[nH]c(=O)ccc12 [Batefenterol]
[1]; Well no.=7045, low concentration screen
  remaining activity at 1.25 µM: 106%
[2]; Well no.=7045, high concentration screen
  remaining activity at 3.75 µM: 109%

## COc1cc2c(cc1CC=C(C)C)C(=O)C[C@@H](c1ccc(O)cc1)O2 [Bavachinin A]
[1]; Well no.=3243, low concentration screen
  remaining activity at 1.25 µM: 100%
[2]; Well no.=3243, high concentration screen
  remaining activity at 3.75 µM: 99%

## CC(C)(C)c1ccc(S(=O)(=O)/C=C/C#N)cc1 [Bay 11-7085]
[1]; Well no.=127, low concentration screen
  remaining activity at 1.25 µM: 105%
[2]; Well no.=127, high concentration screen
  remaining activity at 3.75 µM: 105%

## N#Cc1c(Oc2cccc(OS(=O)(=O)CCCC(F)(F)F)c2)cccc1C(F)(F)F [Bay 59-3074]
[1]; Well no.=8043, low concentration screen
  remaining activity at 1.25 µM: 96.7%
[2]; Well no.=8043, high concentration screen
  remaining activity at 3.75 µM: 96.5%

## Cc1c(-c2ccc(O)cc2)n(Cc2ccc(OCCN3CCCCCC3)cc2)c2ccc(O)cc12 [Bazedoxifene HCl]
[1]; Well no.=5100, low concentration screen
  remaining activity at 1.25 µM: 105%
[2]; Well no.=5100, high concentration screen
  remaining activity at 3.75 µM: 105%

## CCC(=O)OCC(=O)[C@@]1(OC(=O)CC)[C@@H](C)C[C@H]2[C@@H]3CCC4=CC(=O)C=C[C@]4(C)[C@@]3(Cl)[C@@H](O)C[C@@]21C [Beclometasone dipropionate]
[1]; Well no.=7615, low concentration screen
  remaining activity at 1.25 µM: 101%
[2]; Well no.=7615, high concentration screen
  remaining activity at 3.75 µM: 96.1%

## C[C@H]1C[C@H]2[C@@H]3CCC4=CC(=O)C=C[C@]4(C)[C@@]3(Cl)[C@@H](O)C[C@]2(C)[C@@]1(O)C(=O)CO [Beclomethasone]
[1]; Well no.=356, low concentration screen
  remaining activity at 1.25 µM: 95.3%
[2]; Well no.=356, high concentration screen
  remaining activity at 3.75 µM: 100%

## O=C(/C=C/c1cccc(S(=O)(=O)Nc2ccccc2)c1)NO [Belinostat (PXD101)]
[1]; Well no.=5009, low concentration screen
  remaining activity at 1.25 µM: 98.9%
[2]; Well no.=5009, high concentration screen
  remaining activity at 3.75 µM: 91.9%

## CCO[C@@H]1OC(=O)C[C@@H]1NC(=O)[C@@H]1CCCN1C(=O)[C@@H](NC(=O)c1ccc(N)c(Cl)c1)C(C)(C)C [Belnacasan]
[1]; Well no.=6502, low concentration screen
  remaining activity at 1.25 µM: 98%
[1]; Well no.=8460, low concentration screen
  remaining activity at 1.25 µM: 103%
[2]; Well no.=6502, high concentration screen
  remaining activity at 3.75 µM: 98.4%
[2]; Well no.=8460, high concentration screen
  remaining activity at 3.75 µM: 110%

## CCOC(=O)[C@H](CCc1ccccc1)N[C@H]1CCc2ccccc2N(CC(=O)O)C1=O [Benazepril (hydrochloride)]
[1]; Well no.=7786, low concentration screen
  remaining activity at 1.25 µM: 104%
[2]; Well no.=7786, high concentration screen
  remaining activity at 3.75 µM: 104%

## CCOC(=O)[C@H](CCc1ccccc1)N[C@H]1CCc2ccccc2N(CC(=O)O)C1=O [Benazepril HCl]
[1]; Well no.=5153, low concentration screen
  remaining activity at 1.25 µM: 97.7%
[2]; Well no.=5153, high concentration screen
  remaining activity at 3.75 µM: 101%

## COc1cccc(OC)c1OCCNCC1CSc2ccccc2O1 (stereo not shown) [Benoxathian hydrochloride]
[1]; Well no.=323, low concentration screen
  remaining activity at 1.25 µM: 99.7%
[2]; Well no.=323, high concentration screen
  remaining activity at 3.75 µM: 93.6%

## NC(CO)C(=O)NNCc1ccc(O)c(O)c1O (stereo not shown) [Benserazide hydrochloride]
[1]; Well no.=367, low concentration screen
  remaining activity at 1.25 µM: 96.9%
[2]; Well no.=367, high concentration screen
  remaining activity at 3.75 µM: 96.5%

## NC(CO)C(=O)NNCc1ccc(O)c(O)c1O (stereo not shown) [Benserazide]
[1]; Well no.=1903, low concentration screen
  remaining activity at 1.25 µM: 97.8%
[2]; Well no.=1903, high concentration screen
  remaining activity at 3.75 µM: 97.7%

## NC(=O)c1ccccc1 [Benzamide]
[1]; Well no.=358, low concentration screen
  remaining activity at 1.25 µM: 96.5%
[2]; Well no.=358, high concentration screen
  remaining activity at 3.75 µM: 95.9%

## N=C(N)c1ccccc1 [Benzamidine hydrochloride]
[1]; Well no.=223, low concentration screen
  remaining activity at 1.25 µM: 99.2%
[2]; Well no.=223, high concentration screen
  remaining activity at 3.75 µM: 99%

## N/C(=N\C(=O)c1nc(Cl)c(N)nc1N)NCc1ccccc1 [Benzamil hydrochloride]
[1]; Well no.=267, low concentration screen
  remaining activity at 1.25 µM: 95.3%
[2]; Well no.=267, high concentration screen
  remaining activity at 3.75 µM: 92.2%

## N/C(=N\C(=O)c1nc(Cl)c(N)nc1N)NCc1ccccc1 [Benzamil]
[1]; Well no.=2050, low concentration screen
  remaining activity at 1.25 µM: 104%
[2]; Well no.=2050, high concentration screen
  remaining activity at 3.75 µM: 104%

## CCc1oc2ccccc2c1C(=O)c1cc(Br)c(O)c(Br)c1 [Benzbromarone]
[1]; Well no.=8442, low concentration screen
  remaining activity at 1.25 µM: 86.8%
[2]; Well no.=8442, high concentration screen
  remaining activity at 3.75 µM: 85.1%

## NS(=O)(=O)c1ccccc1 [Benzenesulfonamide]
[1]; Well no.=8398, low concentration screen
  remaining activity at 1.25 µM: 97.6%
[2]; Well no.=8398, high concentration screen
  remaining activity at 3.75 µM: 101%

## O=C1CCC(c2ccccc2)(C2CCN(Cc3ccccc3)CC2)C(=O)N1 (stereo not shown) [Benzetimide (hydrochloride)]
[1]
  remaining activity at 1.25 µM: 99.9%
[2]
  remaining activity at 3.75 µM: 97.6%

## C[C@@]12C[C@@]3(O)O[C@@H](O1)[C@]1(COC(=O)c4ccccc4)[C@H]3C[C@@]12O[C@@H]1O[C@H](COC(=O)c2ccccc2)[C@@H](O)[C@H](O)[C@H]1O [Benzoylpaeoniflorin]
[1]; Well no.=6394, low concentration screen
  remaining activity at 1.25 µM: 101%
[2]; Well no.=6394, high concentration screen
  remaining activity at 3.75 µM: 98.2%

## NS(=O)(=O)c1cc2c(cc1Cl)N=C(CSCc1ccccc1)NS2(=O)=O [Benzthiazide]
[1]; Well no.=8586, low concentration screen
  remaining activity at 1.25 µM: 98.4%
[2]; Well no.=8586, high concentration screen
  remaining activity at 3.75 µM: 93.6%

## CN1[C@@H]2CC[C@H]1C[C@@H](OC(c1ccccc1)c1ccccc1)C2 [Benztropine (mesylate)]
[1]; Well no.=8235, low concentration screen
  remaining activity at 1.25 µM: 100%
[2]; Well no.=8235, high concentration screen
  remaining activity at 3.75 µM: 99.9%

## CN1[C@@H]2CC[C@H]1C[C@@H](OC(c1ccccc1)c1ccccc1)C2 [Benztropine mesylate]
[1]; Well no.=177, low concentration screen
  remaining activity at 1.25 µM: 104%
[2]; Well no.=177, high concentration screen
  remaining activity at 3.75 µM: 104%

## CN(C)CCCOc1nn(Cc2ccccc2)c2ccccc12 [Benzydamine]
[1]; Well no.=2302, low concentration screen
  remaining activity at 1.25 µM: 95.4%
[2]; Well no.=2302, high concentration screen
  remaining activity at 3.75 µM: 96.1%

## O=C(O)CCCN1CCC(O[C@@H](c2ccc(Cl)cc2)c2ccccn2)CC1 [Bepotastine (Beslilate)]
[1]; Well no.=6333, low concentration screen
  remaining activity at 1.25 µM: 97.3%
[2]; Well no.=6333, high concentration screen
  remaining activity at 3.75 µM: 93.3%

## O=C(O)CCCN1CCC(O[C@@H](c2ccc(Cl)cc2)c2ccccn2)CC1 [Bepotastine Besilate]
[1]; Well no.=5267, low concentration screen
  remaining activity at 1.25 µM: 91.9%
[2]; Well no.=5267, high concentration screen
  remaining activity at 3.75 µM: 91.2%

## COc1c2ccoc2cc2oc(=O)ccc12 [Bergapten]
[1]; Well no.=3789, low concentration screen
  remaining activity at 1.25 µM: 92.7%
[2]; Well no.=3789, high concentration screen
  remaining activity at 3.75 µM: 87%

## COc1c(O)cc2c(c1O)[C@@H]1O[C@H](CO)[C@@H](O)[C@H](O)[C@H]1OC2=O [Bergenin]
[1]; Well no.=3517, low concentration screen
  remaining activity at 1.25 µM: 103%
[2]; Well no.=3517, high concentration screen
  remaining activity at 3.75 µM: 107%
